Among the data in US4150970A, “Growth regulator for plants” (Board of Trustees of Michigan State University, priority 1977, dated 1979) are Dry wt values, retold here.

The test has as its system Chico III tomatoes. The experiment in a line: Synthetic triacontanol on tomatoes grown in soil, foliage sprayed (Example III). The format is in vivo, tomato. The settings on record: six days. How it is done:
Synthetic triacontanol in aqueous solution was applied to rice (4 replicates) in nutrient cultures and to "Chico III" tomatoes (6 replicates) grown in soil as previously described. The response of both rice and tomatoes to synthetic triacontanol after seven and six days respectively was similar to that of the natural triacontanol with the optimum rate at between 0.01 and 0.1 mg per liter, as summarized in the following table III:
^2 Tomatoes grown in greenhouse soil and foliage sprayed, including

With `CCCCCCCCCCCCCCCCCCCCCCCCCCCCCCO` [Triacontanol, 1-triacontanol], the Dry wt (0.001 mg/liter) was 227 mg/shoot, the Dry wt (0.010 mg/liter) stood at 251 mg/shoot, the Dry wt (0.100 mg/liter) is reported as 245 mg/shoot and the Dry wt (1.000 mg/liter) is listed as 234 mg/shoot.
